# According to patent US12662491B2 (Redona Therapeutics, Inc., priority 2020, dated 2026):
# Molecular target: T1, Zcchc11 enzyme (Homo sapiens, UniProt Q5TAX3)
# T1 construct: made in house; host or cells: HEK293 cells (Zcchc11); E. coli Rosetta II (LIN28A)
# T1 sequence (Q5TAX3 212-1420): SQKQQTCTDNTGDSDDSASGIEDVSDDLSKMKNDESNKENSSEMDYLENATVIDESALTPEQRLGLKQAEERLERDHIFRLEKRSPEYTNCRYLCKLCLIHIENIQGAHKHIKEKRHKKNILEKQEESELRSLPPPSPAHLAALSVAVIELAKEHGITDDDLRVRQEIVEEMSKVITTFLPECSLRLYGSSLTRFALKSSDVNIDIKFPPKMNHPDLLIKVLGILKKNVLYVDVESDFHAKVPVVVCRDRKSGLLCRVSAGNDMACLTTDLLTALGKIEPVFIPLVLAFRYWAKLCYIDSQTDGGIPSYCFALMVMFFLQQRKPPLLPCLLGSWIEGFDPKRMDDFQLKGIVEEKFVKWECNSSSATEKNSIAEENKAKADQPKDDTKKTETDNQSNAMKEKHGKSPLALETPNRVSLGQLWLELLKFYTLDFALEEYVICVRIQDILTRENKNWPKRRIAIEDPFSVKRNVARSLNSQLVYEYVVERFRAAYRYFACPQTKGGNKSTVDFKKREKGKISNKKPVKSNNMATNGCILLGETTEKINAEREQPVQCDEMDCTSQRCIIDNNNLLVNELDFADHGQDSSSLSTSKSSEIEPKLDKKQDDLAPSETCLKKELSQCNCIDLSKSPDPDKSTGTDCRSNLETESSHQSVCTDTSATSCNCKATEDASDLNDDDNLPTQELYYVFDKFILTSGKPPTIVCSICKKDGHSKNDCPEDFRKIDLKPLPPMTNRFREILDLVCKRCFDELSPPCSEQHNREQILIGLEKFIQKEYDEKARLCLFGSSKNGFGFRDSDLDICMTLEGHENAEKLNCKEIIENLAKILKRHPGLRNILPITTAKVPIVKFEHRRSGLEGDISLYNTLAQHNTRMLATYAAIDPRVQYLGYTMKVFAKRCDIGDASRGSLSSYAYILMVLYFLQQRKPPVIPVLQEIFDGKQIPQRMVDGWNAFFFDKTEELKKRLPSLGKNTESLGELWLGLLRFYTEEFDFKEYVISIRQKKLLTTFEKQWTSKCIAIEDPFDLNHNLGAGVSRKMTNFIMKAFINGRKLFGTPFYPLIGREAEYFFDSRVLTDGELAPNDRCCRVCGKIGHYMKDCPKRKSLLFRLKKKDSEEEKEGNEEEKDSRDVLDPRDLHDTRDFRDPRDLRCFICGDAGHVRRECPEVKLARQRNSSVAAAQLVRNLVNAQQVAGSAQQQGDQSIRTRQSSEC
# Test: TUTase assay (Zcchc11 assay, Lin28a-dependent polyuridylation of pre-let-7)
# Format: biochemical
# Conditions: Lin28a-dependent Zcchc11 (Z11) TUTase activity; read-out: Potency Lin28a-dep Z11 IC50
# Procedure, shortened: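 Potency is measured as inhibition of LIN28A-driven U-tail addition to 2 nM pre-let-7 by 0.2 nM HEK293-derived Zcchc11 fragment with 5 uM UTP at room temperature. Tail growth appears as fluorescein quenching by an annealing rhodamine-A20 probe.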
row,SMILES,IC50
1,"CN(C)C1CN(c2ccc(-n3cc(C(=O)O)c(=O)c4cc(Cl)c(N5CCC[C@@H]5COc5ncncc5Cl)cc43)cn2)C1 [Compound 167, (R)-6-chloro-7-(2-(((5-chloro-pyrimidin-4-yl)oxy)methyl)pyrrolidin-1-yl)-1-(6-(3-(dimethyl-amino)azetidin-1-yl)pyridin-3-yl)-4-oxo-1,4-dihydro-quinoline-3-carboxylic acid]",≤ 1 µM
2,"Cc1nn(C)cc1-n1cc(C(=O)O)c(=O)c2cc(Cl)c(N3CCC[C@@H]3COc3ncccc3Cl)cc21 [Compound 168, (R)-6-chloro-7-(2-(((3-chloropyridin-2-yl)oxy)methyl)pyrrolidin-1-yl)-1-(1,3-dimethyl-1H-pyrazol-4-yl)-4-oxo-1,4-dihydro-quinoline-3-carboxylic acid]",≤ 1 µM
3,"CN(C)C1CN(c2ccc(-n3cc(C(=O)O)c(=O)c4cc(C#N)c(N5CCC[C@@H]5COc5ncccc5F)cc43)cn2)C1 [Compound 169, (R)-6-cyano-1-(6-(3-(dimethyl-amino)azetidin-1-yl)pyridin-3-yl)-7-(2-(((3-fluoropyridin-2-yl)oxy)methyl)pyrrolidin-1-yl)-4-oxo-1,4-dihydro-quinoline-3-carboxylic acid]",≤ 1 µM
4,"CN(C)C1CN(c2ccc(-n3cc(C(=O)O)c(=O)c4cc(Cl)c(N5CCC6CC65COc5ncccc5Cl)cc43)cn2)C1 (stereo not shown) [Compound 170, 6-chloro-7-(1-(((3-chloropyridin-2-yl)oxy)methyl)-2-azabicyclo [3.1.0]hexan-2-yl)-1-(6-(3-(dimethyl-amino)azetidin-1-yl)pyridin-3-yl)-4-oxo-1,4-dihydro-quinoline-3-carboxylic acid]",≤ 1 µM
5,"O=C(O)c1cn(-c2ccc(Cl)c(O)c2)c2cc(N3CCC[C@@H]3COc3ncccc3Cl)ccc2c1=O [Compound 171, (R)-1-(4-chloro-3-hydroxy-phenyl)-7-(2-(((3-chloropyridin-2-yl)oxy)methyl)pyrrolidin-1-yl)-4-oxo-1,4-dihydro-quinoline-3-carboxylic acid]",> 50 µM
6,"CN(C)C1CN(c2ccc(-n3cc(C(=O)O)c(=O)c4cc(Cl)c(N5CCC[C@@H]5COc5nccn6ccnc56)cc43)cn2)C1 [Compound 172, (R)-6-chloro-1-(6-(3-(dimethyl-amino)azetidin-1-yl)pyridin-3-yl)-7-(2-((imidazo [1,2-a]pyrazin-8-yloxy)methyl)pyrrolidin-1-yl)-4-oxo-1,4-dihydro-quinoline-3-carboxylic acid]",≤ 1 µM
7,"CN(C)C1CN(c2ccc(-n3cc(C(=O)O)c(=O)c4cc(Cl)c(N5CCC[C@@H]5COc5nnccc5Cl)cc43)cn2)C1 [Compound 173, (R)-6-chloro-7-(2-(((4-chloro-pyridazin-3-yl)oxy)methyl)pyrrolidin-1-yl)-1-(6-(3-(dimethyl-amino)azetidin-1-yl)pyridin-3-yl)-4-oxo-1,4-dihydro-quinoline-3-carboxylic acid]",≤ 1 µM
8,"COc1ccc(Cl)c(OCC23CC(CN2c2cc4c(cc2Cl)c(=O)c(C(=O)O)cn4-c2ccc(N)nc2)C3)n1 [Compound 176, 1-(6-aminopyridin-3-yl)-6-chloro-7-(1-[[(3-chloro-6-methoxy-pyridin-2-yl)oxy]methyl]-2-azabicyclo [2.1.1]hexan-2-yl)-4-oxoquinoline-3-carboxylic acid]",1 to 10 µM
9,"COc1ccc(Cl)c(OCC23CC(CN2c2cc4c(cc2Cl)c(=O)c(C(=O)O)cn4-c2ccnc(N)c2)C3)n1 [Compound 177, 1-(2-aminopyridin-4-yl)-6-chloro-7-(1-[[(3-chloro-6-methoxy-pyridin-2-yl)oxy]methyl]-2-azabicyclo [2.1.1]hexan-2-yl)-4-oxoquinoline-3-carboxylic acid]",1 to 10 µM
10,"CN(C)C1CN(c2ccc(-n3cc(C(=O)O)c(=O)c4cc(C#N)c(N5C6CCC5(COc5ncccc5F)CC6)cc43)cn2)C1 [Compound 181, 6-cyano-1-(6-(3-(dimethyl-amino)azetidin-1-yl)pyridin-3-yl)-7-(1-(((3-fluoropyridin-2-yl)oxy)methyl)-7-azabicyclo [2.2.1]heptan-7-yl)-4-oxo-1,4-dihydro-quinoline-3-carboxylic acid]",≤ 1 µM
11,"CN(C)C1CN(c2ccc(-n3cc(C(=O)O)c(=O)c4cc(Cl)c(N5CCC5COc5ncccc5Cl)cc43)cn2)C1 (stereo not shown) [Compound 184, 6-chloro-7-(2-(((3-chloropyridin-2-yl)oxy)methyl)azetidin-1-yl)-1-(6-(3-(dimethyl-amino)azetidin-1-yl)pyridin-3-yl)-4-oxo-1,4-dihydro-quinoline-3-carboxylic acid formic acid]",≤ 1 µM
12,CN(C)C1CN(c2ccc(-n3cc(C(=O)O)c(=O)c4cc(Cl)c(N5CCC[C@]5(C)COc5ncccc5Cl)nc43)cn2)C1 [Compound 185],≤ 1 µM
13,"COc1ccnc(OC[C@H]2C[C@H]3C[C@H]3N2c2cc3c(cc2Cl)c(=O)c(C(=O)O)cn3-c2ccc(N(C)C)nc2)c1F [Compound 196, 6-chloro-1-(6-(dimethyl-amino)pyridin-3-yl)-7-((1R,3R,5R)-3-(((3-fluoro-4-methoxy-pyridin-2-yl)oxy)methyl)-2-azabicyclo [3.1.0]hexan-2-yl)-4-oxo-1,4-dihydro-quinoline-3-carboxylic acid]",≤ 1 µM
14,"COc1ccnc(OC[C@H]2C[C@H]3C[C@H]3N2c2cc3c(cc2F)c(=O)c(C(=O)O)cn3-c2ccc(N(C)C)nc2)c1F [Compound 197, 1-(6-(dimethyl-amino)pyridin-3-yl)-6-fluoro-7-((1R,3R,5R)-3-(((3-fluoro-4-methoxy-pyridin-2-yl)oxy)methyl)-2-azabicyclo [3.1.0]hexan-2-yl)-4-oxo-1,4-dihydro-quinoline-3-carboxylic acid]",≤ 1 µM
15,"COc1ccc(Cl)c(OC[C@H]2C[C@H]3C[C@H]3N2c2cc3c(cc2Cl)c(=O)c(C(=O)O)cn3-c2ccnc(N)c2)n1 [Compound 198, 1-(2-aminopyridin-4-yl)-6-chloro-7-((1R,3R,5R)-3-(((3-chloro-6-methoxy-pyridin-2-yl)oxy)methyl)-2-azabicyclo [3.1.0]hexan-2-yl)-4-oxo-1,4-dihydro-quinoline-3-carboxylic acid]",≤ 1 µM
16,"COc1ccc(Cl)c(OC[C@H]2C[C@H]3C[C@H]3N2c2cc3c(cc2F)c(=O)c(C(=O)O)cn3-c2ccnc(N)c2)n1 [Compound 199, 1-(2-aminopyridin-4-yl)-7-((1R,3R,5R)-3-(((3-chloro-6-methoxy-pyridin-2-yl)oxy)methyl)-2-azabicyclo [3.1.0]hexan-2-yl)-6-fluoro-4-oxo-1,4-dihydro-quinoline-3-carboxylic acid]",≤ 1 µM
17,"CO/N=C1\C[C@H](COc2nc(OC)ccc2Cl)N(c2cc3c(cc2Cl)c(=O)c(C(=O)O)cn3-c2ccc(N3CC(N(C)C)C3)nc2)C1 [Compound 200, (R,E)-6-chloro-7-(2-(((3-chloro-6-methoxy-pyridin-2-yl)oxy)methyl)-4-(methoxyimino)pyrrolidin-1-yl)-1-(6-(3-(dimethyl-amino)azetidin-1-yl)pyridin-3-yl)-4-oxo-1,4-dihydro-quinoline-3-carboxylic acid]",≤ 1 µM
18,"COc1ccc(Cl)c(OC[C@H]2C[C@@H]3C[C@@H]3N2c2cc3c(cc2F)c(=O)c(C(=O)O)cn3-c2ccc(N3CC(N(C)C)C3)nc2)n1 [Compound 201, 7-((1S,3R,5S)-3-(((3-chloro-6-methoxy-pyridin-2-yl)oxy)methyl)-2-azabicyclo [3.1.0]hexan-2-yl)-1-(6-(3-(dimethyl-amino)azetidin-1-yl)pyridin-3-yl)-6-fluoro-4-oxo-1,4-dihydro-quinoline-3-carboxylic acid]",≤ 1 µM
19,"COc1ccc(Cl)c(OCC2C3CC(C3)N2c2cc3c(cc2Cl)c(=O)c(C(=O)O)cn3-c2ccc(N3CC(N(C)C)C3)nc2)n1 (stereo not shown) [Compound 202, 6-chloro-7-(3-(((3-chloro-6-methoxy-pyridin-2-yl)oxy)methyl)-2-azabicyclo [2.1.1]hexan-2-yl)-1-(6-(3-(dimethyl-amino)azetidin-1-yl)pyridin-3-yl)-4-oxo-1,4-dihydro-quinoline-3-carboxylic acid]",≤ 1 µM
